pKd: −log10 of the molar value. “Also recorded” adds a separate entry of the source. Bridges are numbered along the chain shown (N, C = ends). Where no end group is shown, it is not given here.
Key:
[1] = tested on: biotinylated anti-MPA Fab antibody; assay: Bioluminescent bead-based competitive immunoassay with A2-NanoLuc / NanoLuc-A2 tracer; type: binding; conditions: for Cross-reactivity: IC50 for MPA divided by the IC50 of the interferent
Experimental: (§1) To detect MPA with the A2-NanoLuc fusion protein, a bead-based assay was carried out on a black microtiter well plate by immobilizing the biotinylated anti-MPA onto streptavidin-coated magnetic beads (Figure 1). Briefly, the wells were first blocked with assay buffer (SuperBlock with 0.05% Tween-20) for 1 h. Then, 60 μL of 5 μg mL^–1 biotinylated anti-MPA in assay buffer and 20 μL of streptavidin beads (1:50 dilution from the stock) were added to the wells and incubated for 30 min at RT. After washing three times with PBST, 60 μL of a solution containing different concentrations of MPA and 77 μg mL^–1 of the A2-NanoLuc in assay buffer was added to the wells and incubated 30 min at RT. Once the beads were washed, 60 μL of NanoGLO substrate in PBS were added and bioluminescence was measured after a 2 min incubation at 470 nm with a bandwidth of 80 nm using a CLARIOstar microplate reader.
The matrix effect was tested in the presence of different dilutions of the ultrafiltered serum samples [1/2, 1/6, and 1/8, (v/v)], treated following a previously described procedure,[11] in PBST. […] Therefore, such dilution was used for further experiments.

[2] = tested on: anti-MPA Fab antibody; assay: SPR (Biacore T200), 1:1 Langmuir kinetics, binding to immobilized anti-MPA Fab; conditions: for Dissociation rate constant kd: Biacore T200, CM5 chip, anti-MPA (14) Fab immobilized, anti-OTA Fab reference, 1x PBS-P, +25 °C, dissociation phase 5 min, averages (± SE), seven concentrations; for Binding to anti-MPA Fab surface: SPR, concentration-dependent responses
Source text: To compare the binding properties of the biotinylated cyclic peptide and MPA toward the anti-MPA antibody, label-free SPR technology was applied. In the binding experiments, previously identified, produced, and purified Fab antibodies recognizing either MPA or ochratoxin A were immobilized onto sensor chip surfaces.[22] The same experimental conditions were used to study the binding properties of cyclic peptide (A2) and MPA. The results are presented in Figures S3 and S4 and summarized in Table S1 (Supporting Information).
(§2) solution as described before.
(§3) (OTA) Fab fragment on reference surface (flow channel 1). As running buffer, 1× PBS-P
(§4) After dissociation phase of 5 min, regeneration
followed by stabilization period of 60s. All samples were analyzed in replicates. […]

[3] = Biosensor analysis of blood samples of patients and healthy controls; type: in vivo, human; conditions: free MPA
Experimental: as §1, §2, §3, §4
followed by stabilization period of 60s. All samples were analyzed in replicates. The result s were
for MPAG, Acyl-MPAG and MPA respectively. The rt were reproducible between runs. Fig ure
The three metabolites were
curves was >0.99 for all compounds tested.
and centrifuged at 12,045 g for 30 min.
samples and vortexed for 5 minutes at 1000 rpm. […]

[4] = tested on: anti-MPA; assay: Bead-based competitive phage immunoassay with clone A2; type: binding; conditions: Amplex UltraRed fluorescence, n = 3
Experimental: (§5) Briefly, black microtiter plates were blocked with 280 μL of assay buffer for 1 h at RT and subsequently washed three times with PBS. Then, the biotinylated anti-MPA (1.2 μg mL^–1) and neutravidin-coated magnetic beads (125 μg mL^–1) functionalized as described before,[18] were added to the wells in the assay buffer (total volume 260 μL per well), and incubated for 30 min at RT. After washing the beads using a plate washer with a magnetic support, the phage clone (10^11 pfu mL^–1) and increasing concentrations of free MPA were added to the wells (in assay buffer, 60 μL per well) and incubated for 30 min at RT. The beads were washed again to remove the excess, followed by incubation with HRP-conjugated anti-M13 antibody (1:5000 dilution in assay buffer; 80 μL per well) for 30 min at RT. Finally, after washing, 80 μL of Amplex UltraRed solution was added to each well, and the fluorescence was monitored with a CLARIOstar microplate reader (BMG Labtech) (λex = 530 nm and λem = 590 nm).

[5] = tested on: anti-MPA; assay: Bead-based competitive immunoassay with synthetic biotinylated peptide A2; type: binding
[6] = serum; cited from earlier work
Source text: Mycophenolic acid (MPA) is a mycotoxin produced by Penicillium fungi, and it is widely used as an immunosuppressant drug to prevent organ rejection in transplanted patients.[1] Recently, it has also been tested as a chemotherapeutic agent as it inhibits the proliferation of cancer cells.[2] Due to the small therapeutic window that MPA has, it is very important to monitor correctly its levels inside the human body.[3] MPA is mainly found in the serum, but only 1% of the total MPA exists in the free form, which is the one responsible for its pharmacological activity.[3],[4] Therefore, the availa ...

[7] = human, in vivo
Experimental: Volunteers donated whole blood samples with permission from the Ethics Committee from Hospital Clínico Universitario de Valladolid, Spain (no. PI 21-2245). The blood samples were kept at 20 °C during transport and storage. The samples were treated following the procedure described previously (see the Supporting Information for details).[11]
100µL of a 0.1 µg mL−1 bi o -A2 solution were added to the neutravidin-functionalized beads
solution as described before. After a 30-min incubation and a similar washing step, 100 µL of a
solution containing 0.5µg mL −1 of anti-MPA and different concentrations of free MPA,
previously incubated during 10 min, were added to the beads and incubated for another 30 m in.
After washing, an anti-IgG-HRP antibody was added, incubated 30 min and washed thereafter.
Finally, 80 µL of Amplex UltraRed was added and the fluorescence was monitored as described
The optimized separation of the three metabolites was performed in gradient elution mode,
quantified using an internal standard (MPA-LuciferYellow) calibration model using a nine-point
calibration curve, with a concentration range (0.5–80 ng mL −1 for MPA; 50–15000ng mL−1 f or
MPAG and 12– 250ng mL−1 for Acyl-MPAG) for the three metabolites. […]
analyzed. Free MPA was analyzed in plasma samples after a 1:8 dilution in SuperBlock + 0.05% […]

[8] = tested on: anti-MPA; assay: Plate-based phage ELISA, direct and competitive; type: binding
Experimental: The assay was carried out at room temperature (RT). The biotinylated anti-MPA (Supporting Information) [5 μg mL^–1 in the assay buffer (SuperBlock supplemented with 0.05% Tween-20); 100 μL per well] was immobilized on streptavidin-coated wells (30 min), followed by three-time washes with PBST. The wells were then blocked with 280 μL of assay buffer for 30 min and washed again three times with PBS. Then, the amplified phage stock (between 10^10 and 10^11 pfu mL^–1; 100 μL per well) was added to the wells in assay buffer and incubated for 1 h with slow shaking. After washing the wells as described above, the HRP-conjugated anti-M13 monoclonal antibody (1:5000 dilution in assay buffer; 100 μL per well) was added to the wells and incubated for 1 h. Finally, the plate was washed three times as described above and 100 μL of ABTS was added to the wells. After 5 min, absorbance at 405 nm was measured in a Varioskan plate reader (Thermo Scientific).
as §5

[9] = A2-NanoLuc bead-based bioluminescent assay, n = 3

COc1c(C)c2c(c(O)c1C/C=C(\C)CCC(=O)O)C(=O)OC2 [MPA, Mycophenolic acid]
Dynamic range (20–80% inhibition) ([1]; A2-NanoLuc tracer, assay buffer, bioluminescence, n = 3): 0.64–14 ng mL^–1
Matrix effect on dose response curve ([1]; PBST vs ultrafiltered serum diluted 1/8 (v/v), p > 0.05, n = 3): No significant differences
LOD (10% inhibition) ([1]; free MPA competing with A2-NanoLuc (77 μg/mL) for biotinylated anti-MPA on streptavidin beads, assay buffer (SuperBlock + 0.05% Tween-20), RT, 30 min, bioluminescence 470 nm, n = 3): 0.26 ng mL^–1
IC50 ([1]; free MPA competing with A2-NanoLuc (77 μg/mL) for biotinylated anti-MPA on streptavidin beads, assay buffer, RT, 30 min, bioluminescence 470 nm, logistic fit, n = 3): 2.9 ± 0.5 ng mL^–1
Dissociation rate constant kd [2]: 0.0741 ± 0.0004 s⁻¹
pKd ([2]; MPA and anti-MPA Fab interaction, in agreement with previous SPR affinity in solution results, read-out: Affinity constant): ~7.40
Binding to anti-MPA Fab surface [2]: showed binding to the anti-MPA Fab antibody surface
MPA detected in control samples ([3]; healthy controls H1–H3): no MPA was detected in the control samples
MPA concentration levels by patient ([3]; transplanted patients T1–T5): patients T1 and T2 had the highest MPA concentration levels
LOD (10% inhibition) ([4]; free MPA competing with phage clone A2 (10^11 pfu/mL), neutravidin beads with biotinylated anti-MPA, assay buffer, RT, 30 min): 0.69 ng mL^–1
Dynamic range (20–80% inhibition) ([4]; phage clone A2 (10^11 pfu/mL), neutravidin beads): 1.0–4.1 ng mL^–1
Dynamic range (20–80% inhibition) ([5]; biotinylated A2 peptide (0.1 µg/mL) on neutravidin beads, anti-MPA 0.5 µg/mL, Amplex UltraRed fluorescence, n = 3): 2.4–60 ng mL^–1
LOD (10% inhibition) ([5]; free MPA, biotinylated A2 peptide (0.1 µg/mL) on neutravidin beads, anti-MPA 0.5 µg/mL pre-incubated 10 min with MPA, 30 min, anti-IgG-HRP, Amplex UltraRed fluorescence, n = 3): 0.94 ng mL^–1
Free form of total MPA [6]: 1%

COc1c(C)c2c(c(O[C@@H]3O[C@H](C(=O)O)[C@@H](O)[C@H](O)[C@H]3O)c1C/C=C(\C)CCC(=O)O)C(=O)OC2 [MPAG, mycophenolic acid glucuronide]
Cross-reactivity [1, 9]: 0.03%
MPAG level in samples vs biosensor [7]: below the limit of quantification of the biosensor

COc1c(C)c2c(c(O)c1C/C=C(\C)CCC(=O)O[C@@H]1O[C@H](C(=O)O)[C@@H](O)[C@H](O)[C@H]1O)C(=O)OC2 [acyl-MPAG, acyl-mycophenolic acid glucuronide]
Cross-reactivity [1, 9]: 58%
Behavior in the assay compared to MPA ([1]; cross-reactivity test, A2-NanoLuc bead-based bioluminescent assay): very similar behavior to MPA

C=CC[C@@H]1/C=C(\C)C[C@H](C)C[C@H](OC)[C@H]2O[C@@](O)(C(=O)C(=O)N3CCCC[C@H]3C(=O)O[C@H](/C(C)=C/[C@@H]3CC[C@@H](O)[C@H](OC)C3)[C@H](C)[C@@H](O)CC1=O)[C@H](C)C[C@@H]2OC [tacrolimus]
Cross-reactivity [1, 9]: lower than 0.03%

A(CEGLYAHWC)GGGSK(Bio)-NH2 (disulfide) [Cyclic peptide (A2)]
Dissociation rate constant kd [2]: 0.583 ± 0.001 s⁻¹
Binding to anti-MPA Fab surface [2]: showed binding to the anti-MPA Fab antibody surface
Association / dissociation relative to MPA ([2]; compared to MPA–anti-MPA Fab antibody complex): slower association and faster dissociation
Competition with free MPA ([5]; synthetic biotinylated peptide, competitive neutravidin bead-based assay): competition at the nanomolar level

ACEGLYAHWC (disulfide 2-10 (inferred)) [A2, phage clone displaying […] with a disulfide bond between the two cysteines; MPA mimetic]
Signal in competitive ELISA in the presence of free MPA ([8]; 100 ng/mL free MPA added with phage clone A2, data not shown): significant decrease in the signal
Nonspecific binding ([8]; phage ELISA in the absence of anti-MPA): very low nonspecific binding
Phage ELISA binding to anti-MPA ([8]; phage clone vs immobilized biotinylated anti-MPA, signal-to-background, ABTS, absorbance 405 nm): very high signal-to-background ratio; also recorded: high specificity toward anti-MPA

cyclosporin
Cross-reactivity [1, 9]: lower than 0.03%

— paper PMC8478282, “Recombinant Peptide Mimetic NanoLuc Tracer for Sensitive Immunodetection of Mycophenolic Acid” (Analytical Chemistry, 2021)
